# Numbered stars: 1 amine (or outer) side, 2 acyl side, 3 side chain; on linkers, the order of the positions; unused ones are H or OH. Bridge positions count the residues as written; N and C are the ends. Square brackets hold non-standard residues; d marks the D form. Peptide text beside a SMILES is read from it. * marks the point of attachment. ξ: configuration not given here. ξPro(4-NHCO(5-Cl-2-thienyl)) = O=C(NC1CNC(C(=O)O)C1)c1ccc(Cl)s1; Isoorotoyl = O=C(c1c[nH]c(=O)[nH]c1=O)*; Acetyl(4-pyridyl) = O=C(Cc1ccncc1)*; 2Thenoyl(5-Cl) = O=C(c1ccc(Cl)s1)*; Benzoyl(4-Cl) = O=C(c1ccc(Cl)cc1)*; Morpholinoacetyl = O=C(CN1CCOCC1)*; Phenoxyacetyl = O=C(COc1ccccc1)*; X14 = O=C(C1(c2ccccc2)CCCCC1)*; Cysteamide = C(CS[*:3])N[*:1]; X12 = Cc1nc2ccccn2c1C(=O)*; X1 = O=C(/C=C/c1ccccc1)*; Api = NC1(C(=O)O)CCNCC1; Dap = NC[C@H](N)C(=O)O; Mpa = O=C(O)CCS
# Assays:
# [1] = biological target: T1, thrombin (Homo sapiens, UniProt P00734); test: Thrombin inhibition screen of crude macrocycle reactions (residual thrombin activity, fluorogenic substrate Z-Gly-Gly-Arg-AMC); assay type: biochemical; details: 10 µM macrocycle concentration; crude reactions, Library 1a-l; scaffold AA1-AA2-AA3 combined with 1-16 or '-'
# T1 construct: consists of two polypeptide chains of 36 (light chain) and 259 amino acid
# Experimental: As a proof-of-concept, we screened the macrocycle library for inhibitors against thrombin, which is the central blood coagulation protease and an important therapeutic target. We conducted the screen for thrombin-inhibiting macrocycles in 384-well reaction plates. Briefly, each well contained a unique macrocycle (10 μM), 5 μL of thrombin (2 nM final conc.), and subsequently, 5 µL of a fluorogenic substrate to measure the residual thrombin activity and the extent of protease inhibition.
# The assays were performed in 384-well plates using Tris buffer at pH 7.4 (100 mM Tris-Cl, 150 mM NaCl, 10 mM MgCl2, 1 mM CaCl2, 0.1% w/v BSA, 0.01% v/v Triton-X100, and 0.6% v/v DMSO) using thrombin at a final concentration of 2 nM and the fluorogenic substrate Z-Gly-Gly-Arg-AMC at a final concentration of 50 μM. Thrombin (5 μL, 6 nM) in the Tris-Cl buffer described above was added to each peptide using a BioTek MultiFlo microplate dispenser, and incubated for 10 min at room temperature. […] Data was collected and exported using the Tecan Infinite M200 Pro instrument software. […] For the negative controls (20 wells containing DMSO but no macrocycle), an average slope was calculated. The percent of thrombin inhibition was calculated by dividing the slopes and multiplying the results by 100.
# [2] = biological target: MDM2 (Homo sapiens, UniProt Q00987); test: MDM2 binding screen: displacement of fluorescent p53 peptide probe FP53 (fluorescence polarization); details: for fraction fluorescent probe displaced, Screen: initial screen; for fraction fluorescent probe displaced, Screen / fraction fluorescent probe displaced, Replicate: crude macrocycle reactions; for fraction fluorescent probe displaced: 10 µM macrocycle concentration, crude acylated macrocycle (scaffold Mpa-AA1-AA2-AA3 x carboxylic acid), p53-based fluorescent peptide, human MDM2
# MDM2, sequence (Q00987 whole entry, the tested form may be a part): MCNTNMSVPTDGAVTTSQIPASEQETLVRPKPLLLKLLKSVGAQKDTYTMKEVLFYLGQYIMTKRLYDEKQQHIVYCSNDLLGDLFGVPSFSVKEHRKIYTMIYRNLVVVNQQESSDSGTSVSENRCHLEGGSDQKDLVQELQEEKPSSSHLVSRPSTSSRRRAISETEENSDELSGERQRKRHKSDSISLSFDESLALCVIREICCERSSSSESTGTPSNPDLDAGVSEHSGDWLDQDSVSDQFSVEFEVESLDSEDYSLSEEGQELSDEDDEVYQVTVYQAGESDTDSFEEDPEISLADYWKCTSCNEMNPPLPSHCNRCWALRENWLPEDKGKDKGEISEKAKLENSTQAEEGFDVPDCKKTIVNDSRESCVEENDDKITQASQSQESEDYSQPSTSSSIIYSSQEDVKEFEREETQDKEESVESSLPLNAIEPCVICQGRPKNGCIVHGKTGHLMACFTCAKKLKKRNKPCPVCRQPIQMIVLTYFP
# In short: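 Single-point screen: one fluorescence anisotropy reading at 25 °C (485 nm excitation, 535 nm emission) per macrocycle. Crude macrocycle reactions, final 10 µM, were scored for displacing the fluorescent p53 peptide from human MDM2.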
smiles,measurement,setting,value
CC(C)[C@@H]1NC(=O)CCSSCCNC(=O)[C@@H]2CCCN2C(=O)[C@H](CCCCNC(=O)COc2ccccc2)NC1=O [v-D1-B1/13] ([Mpa]VK(Phenoxyacetyl)P-Cysteamide; disulfide 1-C),percent residual thrombin activity,[1],104.766%
O=C(COc1ccccc1)NCCCC[C@@H]1NC(=O)CCSSCCNC(=O)c2ccc(cc2)CNC(=O)[C@H](CO)NC1=O [D1-S-B3/13],percent residual thrombin activity,[1],115.568%
O=C1CCSSCCNC(=O)C(Cc2ccccc2)NC(=O)C2CCCN2C(=O)C2(CCN(C(=O)c3ccc(Cl)s3)CC2)N1 (centres unmarked) [X D6 B1 F Acid 14] ([Mpa][Api](2Thenoyl(5-Cl))PF-Cysteamide; disulfide 1-C; configuration not given here),"fraction fluorescent probe displaced, Screen",[2]; Acid 14,-0.00483
same,"fraction fluorescent probe displaced, Replicate",[2]; Acid 14,0.0465
O=C(Cc1ccncc1)NC[C@@H]1NC(=O)[C@@H]2CCCN2C(=O)CCSSCCNC(=O)[C@H](Cc2ccccc2)NC1=O [X-B1-D3-F + A70] ([Mpa]P[Dap](Acetyl(4-pyridyl))F-Cysteamide; disulfide 1-C),fraction fluorescent probe displaced,[2],-0.04156
O=C1CCNC(=O)C(Cc2c[nH]c3ccccc23)NC(=O)C2CC(NC(=O)c3ccc(Cl)s3)CN2C(=O)CCSSCCN1 (centres unmarked) [X D5 W B2 Acid 14],"fraction fluorescent probe displaced, Screen",[2]; Acid 14,0.17
same,"fraction fluorescent probe displaced, Replicate",[2]; Acid 14,0.17
O=C(C=Cc1ccccc1)NCC1NC(=O)C2CCCN(C2)C(=O)CCSSCCNC(=O)C(Cc2c[nH]c3ccccc23)NC1=O (centres unmarked) [X B4 D3 W Acid 91],"fraction fluorescent probe displaced, Screen",[2]; Acid 91,0.81
same,"fraction fluorescent probe displaced, Replicate",[2]; Acid 91,0.49
Cc1nc2ccccn2c1C(=O)NC[C@@H]1NC(=O)[C@@H]2CCCN2C(=O)CCSSCCNC(=O)[C@H](Cc2c[nH]c3ccccc23)NC1=O [X-B1-D3-W + A61] ([Mpa]P[Dap](X12)W-Cysteamide; disulfide 1-C),fraction fluorescent probe displaced,[2],0.006636
O=C1CCNC(=O)[C@H](Cc2ccccc2)NC(=O)C2(CCN(C(=O)c3ccc(Cl)s3)CC2)NC(=O)CCSSCCN1 [X D6 F B2 Acid 14],"fraction fluorescent probe displaced, Screen",[2]; Acid 14,0.0241
same,"fraction fluorescent probe displaced, Replicate",[2]; Acid 14,0.07
O=C(NC[C@@H]1NC(=O)[C@@H]2CCCN2C(=O)CCSSCCNC(=O)[C@H](Cc2c[nH]c3ccccc23)NC1=O)c1c[nH]c(=O)[nH]c1=O [X-B1-D3-W + A11] ([Mpa]P[Dap](Isoorotoyl)W-Cysteamide; disulfide 1-C),fraction fluorescent probe displaced,[2],0.1
O=C1CCNC(=O)C(Cc2c[nH]c3ccccc23)NC(=O)C2CN(C(=O)c3ccc(Cl)s3)CCN2C(=O)CCSSCCN1 (centres unmarked) [X D7 W B2 Acid 14],"fraction fluorescent probe displaced, Screen",[2]; Acid 14,0.11
same,"fraction fluorescent probe displaced, Replicate",[2]; Acid 14,0.10
O=C1CCSSCCNC(=O)C2(CCN(C(=O)c3ccc(Cl)cc3)CC2)NC(=O)C2CCCN2C(=O)C(Cc2c[nH]c3ccccc23)N1 (centres unmarked) [X W B1 D6 Acid 25] ([Mpa]WP[Api](Benzoyl(4-Cl))-Cysteamide; disulfide 1-C; configuration not given here),"fraction fluorescent probe displaced, Screen",[2]; Acid 25,0.19
same,"fraction fluorescent probe displaced, Replicate",[2]; Acid 25,0.07
O=C(/C=C/c1ccccc1)NC[C@@H]1NC(=O)[C@H](Cc2ccccc2)NC(=O)CCSSCCNC(=O)[C@H]2CCCN(C2)C1=O [X F D3 B4 Acid 91],"fraction fluorescent probe displaced, Screen",[2]; Acid 91,0.11
same,"fraction fluorescent probe displaced, Replicate",[2]; Acid 91,-0.0333
O=C1CCSSCCNC(=O)C2CCCN2C(=O)C2CN(C(=O)C=Cc3ccccc3)CCN2C(=O)C(Cc2c[nH]c3ccccc23)N1 (mixture of isomers) [X W D7 B1 Acid 91],"fraction fluorescent probe displaced, Screen",[2]; Acid 91,-0.08
same,"fraction fluorescent probe displaced, Replicate",[2]; Acid 91,0.0168
O=C1CCSSCCNC(=O)C2(CCN(C(=O)/C=C/c3ccccc3)CC2)NC(=O)c2cccc(c2)CNC(=O)[C@H](Cc2ccccc2)N1 [X F B5 D6 Acid 91],"fraction fluorescent probe displaced, Screen",[2]; Acid 91,-0.08
same,"fraction fluorescent probe displaced, Replicate",[2]; Acid 91,-0.00827
O=C(NCC1NC(=O)C(Cc2c[nH]c3ccccc23)NC(=O)C2CCCN(C2)C(=O)CCSSCCNC1=O)c1ccc(Cl)cc1 (centres unmarked) [X B4 W D3 Acid 25],"fraction fluorescent probe displaced, Screen",[2]; Acid 25,0.09
same,"fraction fluorescent probe displaced, Replicate",[2]; Acid 25,0.22
O=C(CN1CCOCC1)NC[C@@H]1NC(=O)[C@@H]2CCCN2C(=O)CCSSCCNC(=O)[C@H](Cc2c[nH]c3ccccc23)NC1=O [X-B1-D3-W + A63] ([Mpa]P[Dap](Morpholinoacetyl)W-Cysteamide; disulfide 1-C),fraction fluorescent probe displaced,[2],0.03922
O=C(/C=C/c1ccccc1)NC[C@@H]1NC(=O)CCSSCCNC(=O)[C@H]2CCCN(C2)C(=O)[C@H](Cc2c[nH]c3ccccc23)NC1=O [X D3 W B4 Acid 91],"fraction fluorescent probe displaced, Screen",[2]; Acid 91,0.14
same,"fraction fluorescent probe displaced, Replicate",[2]; Acid 91,0.04
O=C1CCSSCCNC(=O)[C@H](Cc2ccccc2)NC(=O)[C@@H]2CCCN2C(=O)C2(CCN(C(=O)/C=C/c3ccccc3)CC2)N1 [X D6 B1 F Acid 91] ([Mpa][Api](X1)PF-Cysteamide; disulfide 1-C),"fraction fluorescent probe displaced, Screen",[2]; Acid 91,-0.08
same,"fraction fluorescent probe displaced, Replicate",[2]; Acid 91,-0.11
O=C(NC1CC2C(=O)NC(Cc3ccccc3)C(=O)N3CCCC3C(=O)NCCSSCCC(=O)N2C1)c1ccc(Cl)s1 (centres unmarked) [X D5 F B1 Acid 14] ([Mpa][ξPro(4-NHCO(5-Cl-2-thienyl))]FP-Cysteamide; disulfide 1-C; configuration not given here),"fraction fluorescent probe displaced, Screen",[2]; Acid 14,0.28
same,"fraction fluorescent probe displaced, Replicate",[2]; Acid 14,0.0465
O=C(NC1CC2C(=O)NCCSSCCC(=O)N3CCCC(C3)C(=O)NC(Cc3ccccc3)C(=O)N2C1)c1ccc(Cl)cc1 (centres unmarked) [X B4 F D5 Acid 25],"fraction fluorescent probe displaced, Screen",[2]; Acid 25,0.0569
same,"fraction fluorescent probe displaced, Replicate",[2]; Acid 25,0.12
O=C1NCCSSCCC(=O)N2CCC[C@H]2C(=O)N[C@@H](CNC(=O)C2(c3ccccc3)CCCCC2)C(=O)N[C@H]1Cc1c[nH]c2ccccc12 [X-B1-D3-W + A98] ([Mpa]P[Dap](X14)W-Cysteamide; disulfide 1-C),fraction fluorescent probe displaced,[2],0.6683
O=C1CCSSCCNC(=O)[C@@H]2CCCN2C(=O)C2(CCN(C(=O)c3ccc(Cl)cc3)CC2)NC(=O)[C@H](Cc2c[nH]c3ccccc23)N1 [X W D6 B1 Acid 25] ([Mpa]W[Api](Benzoyl(4-Cl))P-Cysteamide; disulfide 1-C),"fraction fluorescent probe displaced, Screen",[2]; Acid 25,0.28
same,"fraction fluorescent probe displaced, Replicate",[2]; Acid 25,0.25
O=C(NC[C@@H]1NC(=O)[C@H](Cc2ccccc2)NC(=O)[C@H]2CCCN(C2)C(=O)CCSSCCNC1=O)c1ccc(Cl)cc1 [X B4 F D3 Acid 25],"fraction fluorescent probe displaced, Screen",[2]; Acid 25,0.09
same,"fraction fluorescent probe displaced, Replicate",[2]; Acid 25,0.12
O=C(/C=C/c1ccccc1)NC[C@@H]1NC(=O)[C@H](Cc2ccccc2)NC(=O)c2cccc(c2)CNC(=O)CCSSCCNC1=O [X B5 F D3 Acid 91],"fraction fluorescent probe displaced, Screen",[2]; Acid 91,-0.05
same,"fraction fluorescent probe displaced, Replicate",[2]; Acid 91,-0.00827
O=C(COc1ccccc1)NC[C@@H]1NC(=O)[C@@H]2CCCN2C(=O)CCSSCCNC(=O)[C@H](Cc2c[nH]c3ccccc23)NC1=O [X-B1-D3-W + A13] ([Mpa]P[Dap](Phenoxyacetyl)W-Cysteamide; disulfide 1-C),fraction fluorescent probe displaced,[2],0.1956
O=C1CCSSCCNC(=O)C(Cc2c[nH]c3ccccc23)NC(=O)C2CN(C(=O)C=Cc3ccccc3)CCN2C(=O)c2cccc(c2)CN1 (centres unmarked) [X B5 D7 W Acid 91],"fraction fluorescent probe displaced, Screen",[2]; Acid 91,-0.10
same,"fraction fluorescent probe displaced, Replicate",[2]; Acid 91,-0.06
O=C1CCNC(=O)C2(CCN(C(=O)c3ccc(Cl)cc3)CC2)NC(=O)CCSSCCNC(=O)[C@H](Cc2ccccc2)N1 [X D6 B2 F Acid 25],"fraction fluorescent probe displaced, Screen",[2]; Acid 25,0.0244
same,"fraction fluorescent probe displaced, Replicate",[2]; Acid 25,0.0211
O=C1CCSSCCNC(=O)[C@H](Cc2c[nH]c3ccccc23)NC(=O)[C@@H]2CCCN2C(=O)C2(CCN(C(=O)c3ccc(Cl)s3)CC2)N1 [X D6 B1 W Acid 14] ([Mpa][Api](2Thenoyl(5-Cl))PW-Cysteamide; disulfide 1-C),"fraction fluorescent probe displaced, Screen",[2]; Acid 14,0.08
same,"fraction fluorescent probe displaced, Replicate",[2]; Acid 14,0.07
O=C1CCSSCCNC(=O)C2CC(NC(=O)c3ccc(Cl)s3)CN2C(=O)c2cccc(c2)CNC(=O)C(Cc2c[nH]c3ccccc23)N1 (centres unmarked) [X W B5 D5 Acid 14],"fraction fluorescent probe displaced, Screen",[2]; Acid 14,0.14
same,"fraction fluorescent probe displaced, Replicate",[2]; Acid 14,0.10

# — article PMC9250534, “Synthesis and direct assay of large macrocycle diversities by combinatorial late-stage modification at picomole scale” (Nature Communications, 2022)
